From PubChem BioAssay AID1963828 (Molecular Pharmacology Branch, DTP, NCI, 2024)

Tested on: 991263-137-R1-J2-PDC complex spheroid viability
Test: Anticancer human tumor 991263-137-R1-J2-PDC patient-derived colon adenocarcinoma cell line growth inhibition [POLQ]
Conditions: for IC50: curve of first compound; for viability, T/C: stronger effect = lower value
Summary of the method: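 PDC + HUVEC + MSC complex spheroids; POLQ inhibitors ± partner drugs; top conc. at/near clinical Cmax, else 10 microM (SN-38 1 microM), half-log dilutions; 37 degrees C, 5% CO2.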

[1] = second compound 0.0316 µM, first compound 0.0316 µM
[2] = second compound 0.0316 µM, first compound 0.1 µM
[3] = second compound 0.0316 µM, first compound 0.316 µM
[4] = second compound 0.0316 µM, first compound 1 µM
[5] = second compound 0.0316 µM, first compound 3.16 µM
[6] = second compound 0.0316 µM, first compound 10 µM
[7] = second compound 0.1 µM, first compound 0.0316 µM
[8] = second compound 0.1 µM, first compound 0.1 µM
[9] = second compound 0.1 µM, first compound 0.316 µM
[10] = second compound 0.1 µM, first compound 1 µM
[11] = second compound 0.1 µM, first compound 3.16 µM
[12] = second compound 0.1 µM, first compound 10 µM
[13] = second compound 0.316 µM, first compound 0.0316 µM
[14] = second compound 0.316 µM, first compound 0.1 µM
[15] = second compound 0.316 µM, first compound 0.316 µM
[16] = second compound 0.316 µM, first compound 1 µM
[17] = second compound 0.316 µM, first compound 3.16 µM
[18] = second compound 0.316 µM, first compound 10 µM
[19] = second compound 1 µM, first compound 0.0316 µM
[20] = second compound 1 µM, first compound 0.1 µM
[21] = second compound 1 µM, first compound 0.316 µM
[22] = second compound 1 µM, first compound 1 µM
[23] = second compound 1 µM, first compound 3.16 µM
[24] = second compound 1 µM, first compound 10 µM
[25] = second compound 3.16 µM, first compound 0.0316 µM
[26] = second compound 3.16 µM, first compound 0.1 µM
[27] = second compound 3.16 µM, first compound 0.316 µM
[28] = second compound 3.16 µM, first compound 1 µM
[29] = second compound 3.16 µM, first compound 3.16 µM
[30] = second compound 3.16 µM, first compound 10 µM
[31] = second compound 10 µM, first compound 0.0316 µM
[32] = second compound 10 µM, first compound 0.1 µM
[33] = second compound 10 µM, first compound 0.316 µM
[34] = second compound 10 µM, first compound 1 µM
[35] = second compound 10 µM, first compound 3.16 µM
[36] = second compound 10 µM, first compound 10 µM
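Further: spheroids exposed to compounds for 7 days before readout.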
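Wherever viability, T/C is given: 100% = DMSO vehicle control viability.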

**Q.** Which results are given for CC1COCCN1c1cc(-c2ccnn2C)c2ccnc(-c3ccn[nH]3)c2n1 (stereo not drawn) + COC1C(OC(N)=O)C(O)C(Oc2ccc3c(O)c(NC(=O)c4ccc(O)c(CC=C(C)C)c4)c(=O)oc3c2C)OC1(C)C?
**A.** IC50 (second compound 0.0316 µM): 0.745 µM; IC50 (second compound 0.1 µM): 0.709 µM; IC50 (second compound 0.316 µM): 0.679 µM; IC50 (second compound 1 µM): 0.764 µM; IC50 (second compound 3.16 µM): 0.698 µM; IC50 (second compound 10 µM): 1.34 µM; viability, T/C [1]: 92.3%; viability, T/C [2]: 95.7%; viability, T/C [3]: 76.7%; viability, T/C [4]: 40.9%; viability, T/C [5]: 33.4%; viability, T/C [6]: 30%; viability, T/C [7]: 98.2%; viability, T/C [8]: 101%; viability, T/C [9]: 76%; viability, T/C [10]: 40.2%; viability, T/C [11]: 23.1%; viability, T/C [12]: 31.7%; viability, T/C [13]: 97.6%; viability, T/C [14]: 108%; viability, T/C [15]: 63.3%; viability, T/C [16]: 46%; viability, T/C [17]: 26.4%; viability, T/C [18]: 23.4%; viability, T/C [19]: 89.6%; viability, T/C [20]: 104%; viability, T/C [21]: 75.7%; viability, T/C [22]: 43.1%; viability, T/C [23]: 35.7%; viability, T/C [24]: 29.9%; viability, T/C [25]: 88.4%; viability, T/C [26]: 101%; viability, T/C [27]: 69.5%; viability, T/C [28]: 42.2%; viability, T/C [29]: 33%; viability, T/C [30]: 26.9%; viability, T/C [31]: 82.1%; viability, T/C [32]: 95%; viability, T/C [33]: 85.7%; viability, T/C [34]: 54.9%; viability, T/C [35]: 36.9%; viability, T/C [36]: 30.8%

**Q.** Which results are given for C=CCn1c(=O)c2cnc(Nc3ccc(N4CCN(C)CC4)cc3)nc2n1-c1cccc(C(C)(C)O)n1 + COC1C(OC(N)=O)C(O)C(Oc2ccc3c(O)c(NC(=O)c4ccc(O)c(CC=C(C)C)c4)c(=O)oc3c2C)OC1(C)C?
**A.** IC50 (second compound 0.0316 µM): > 1 µM; IC50 (second compound 0.1 µM): > 1 µM; IC50 (second compound 0.316 µM): > 1 µM; IC50 (second compound 1 µM): > 1 µM; IC50 (second compound 3.16 µM): > 1 µM; IC50 (second compound 10 µM): > 1 µM; viability, T/C (second compound 0.0316 µM, first compound 0.00316 µM): 116%; viability, T/C (second compound 0.0316 µM, first compound 0.01 µM): 115%; viability, T/C [1]: 105%; viability, T/C [2]: 107%; viability, T/C [3]: 95.6%; viability, T/C [4]: 101%; viability, T/C (second compound 0.1 µM, first compound 0.00316 µM): 94.2%; viability, T/C (second compound 0.1 µM, first compound 0.01 µM): 109%; viability, T/C [7]: 91.1%; viability, T/C [8]: 97%; viability, T/C [9]: 108%; viability, T/C [10]: 77.4%; viability, T/C (second compound 0.316 µM, first compound 0.00316 µM): 102%; viability, T/C (second compound 0.316 µM, first compound 0.01 µM): 110%; viability, T/C [13]: 92.6%; viability, T/C [14]: 97.8%; viability, T/C [15]: 100%; viability, T/C [16]: 108%; viability, T/C (second compound 1 µM, first compound 0.00316 µM): 85.1%; viability, T/C (second compound 1 µM, first compound 0.01 µM): 100%; viability, T/C [19]: 96.8%; viability, T/C [20]: 98.7%; viability, T/C [21]: 104%; viability, T/C [22]: 98%; viability, T/C (second compound 3.16 µM, first compound 0.00316 µM): 111%; viability, T/C (second compound 3.16 µM, first compound 0.01 µM): 81.2%; viability, T/C [25]: 119%; viability, T/C [26]: 105%; viability, T/C [27]: 115%; viability, T/C [28]: 93.4%; viability, T/C (second compound 10 µM, first compound 0.00316 µM): 98.1%; viability, T/C (second compound 10 µM, first compound 0.01 µM): 107%; viability, T/C [31]: 102%; viability, T/C [32]: 92.5%; viability, T/C [33]: 110%; viability, T/C [34]: 105%

**Q.** What does the source list for CCc1cc2c(N3CCc4c(cc(Cn5ccnc5)cc4-c4cn(C)nc4C(F)(F)F)C3=O)ccnc2c(OC)n1 + COC1C(OC(N)=O)C(O)C(Oc2ccc3c(O)c(NC(=O)c4ccc(O)c(CC=C(C)C)c4)c(=O)oc3c2C)OC1(C)C?
**A.** IC50 (second compound 0.0316 µM): > 10 µM; IC50 (second compound 0.1 µM): > 10 µM; IC50 (second compound 0.316 µM): > 10 µM; IC50 (second compound 1 µM): > 10 µM; IC50 (second compound 3.16 µM): > 10 µM; IC50 (second compound 10 µM): > 10 µM; viability, T/C [1]: 99.5%; viability, T/C [2]: 104%; viability, T/C [3]: 110%; viability, T/C [4]: 87.6%; viability, T/C [5]: 102%; viability, T/C [6]: 86.7%; viability, T/C [7]: 104%; viability, T/C [8]: 110%; viability, T/C [9]: 87.4%; viability, T/C [10]: 100%; viability, T/C [11]: 90.8%; viability, T/C [12]: 81%; viability, T/C [13]: 105%; viability, T/C [14]: 108%; viability, T/C [15]: 97.1%; viability, T/C [16]: 104%; viability, T/C [17]: 95.4%; viability, T/C [18]: 99.9%; viability, T/C [19]: 101%; viability, T/C [20]: 107%; viability, T/C [21]: 93.9%; viability, T/C [22]: 86.3%; viability, T/C [23]: 102%; viability, T/C [24]: 90.7%; viability, T/C [25]: 99.2%; viability, T/C [26]: 122%; viability, T/C [27]: 113%; viability, T/C [28]: 96.4%; viability, T/C [29]: 106%; viability, T/C [30]: 107%; viability, T/C [31]: 113%; viability, T/C [32]: 106%; viability, T/C [33]: 108%; viability, T/C [34]: 109%; viability, T/C [35]: 101%; viability, T/C [36]: 91.3%

**Q.** For CC1COCCN1c1cc(-c2ccnn2C)c2ccnc(-c3ccn[nH]3)c2n1 (stereo not drawn) + Nc1ccc(C#CCN(C(=O)Cc2ncc(C(F)(F)F)cc2C(F)(F)F)c2ccc(F)cc2)nn1, which IC50 (second compound 0.0316 µM) is on record?
**A.** 1.14 µM

**Q.** What about the IC50 (second compound 0.1 µM) of the same compound?
**A.** 1.61 µM

**Q.** What about the IC50 (second compound 0.316 µM) of the same compound?
**A.** 1.15 µM

**Q.** And the IC50 (second compound 1 µM)?
**A.** 1.4 µM

**Q.** And the IC50 (second compound 3.16 µM)?
**A.** 1.11 µM

**Q.** And the IC50 (second compound 10 µM)?
**A.** 0.918 µM

**Q.** What about the viability, T/C [1] of the same compound?
**A.** 105%

**Q.** And the viability, T/C [2]?
**A.** 93.8%

**Q.** What about the viability, T/C [3] of the same compound?
**A.** 75.6%

**Q.** And the viability, T/C [4]?
**A.** 50.6%

**Q.** And the viability, T/C [5]?
**A.** 38.6%

**Q.** What about the viability, T/C [6] of the same compound?
**A.** 32.5%

**Q.** And the viability, T/C [7]?
**A.** 105%

**Q.** What about the viability, T/C [8] of the same compound?
**A.** 88.7%

**Q.** And the viability, T/C [9]?
**A.** 69.5%

**Q.** And the viability, T/C [10]?
**A.** 58.4%

**Q.** What about the viability, T/C [11] of the same compound?
**A.** 39.9%

**Q.** What about the viability, T/C [12] of the same compound?
**A.** 32.5%

**Q.** And the viability, T/C [13]?
**A.** 99.4%

**Q.** What about the viability, T/C [14] of the same compound?
**A.** 107%

**Q.** What about the viability, T/C [15] of the same compound?
**A.** 74.4%

**Q.** What about the viability, T/C [16] of the same compound?
**A.** 53.7%

**Q.** And the viability, T/C [17]?
**A.** 40.6%

**Q.** And the viability, T/C [18]?
**A.** 32%

**Q.** And the viability, T/C [19]?
**A.** 108%

**Q.** What about the viability, T/C [20] of the same compound?
**A.** 94%

**Q.** What about the viability, T/C [21] of the same compound?
**A.** 75.5%

**Q.** And the viability, T/C [22]?
**A.** 53.4%

**Q.** And the viability, T/C [23]?
**A.** 40.4%

**Q.** And the viability, T/C [24]?
**A.** 31.1%

**Q.** And the viability, T/C [25]?
**A.** 103%

**Q.** And the viability, T/C [26]?
**A.** 95.8%

**Q.** What about the viability, T/C [27] of the same compound?
**A.** 72.5%

**Q.** What about the viability, T/C [28] of the same compound?
**A.** 53%

**Q.** What about the viability, T/C [29] of the same compound?
**A.** 35.8%

**Q.** What about the viability, T/C [30] of the same compound?
**A.** 31.1%

**Q.** And the viability, T/C [31]?
**A.** 93.9%

**Q.** And the viability, T/C [32]?
**A.** 88.2%

**Q.** What about the viability, T/C [33] of the same compound?
**A.** 73%

**Q.** What about the viability, T/C [34] of the same compound?
**A.** 46.2%

**Q.** And the viability, T/C [35]?
**A.** 42.6%

**Q.** What about the viability, T/C [36] of the same compound?
**A.** 33.8%
